Reference: patent US20170007727A1, “METHODS OF IMAGING WITH Ga-68 LABELED MOLECULES” (Immunomedics, Inc., priority 2015, published 2017)
Numbered stars: 1 amine (or outer) side, 2 acyl side, 3 side chain; on linkers, the order of the positions; unused ones are H or OH. Square brackets hold non-standard residues; d marks the D form. Side chains are listed from the residue outwards. Peptide text beside a SMILES is read from it. * marks the point of attachment. DOTA = O=C(O)CN1CCN(CC(=O)O)CCN(CC(=O)*)CCN(CC(=O)O)CC1; NH(2-(imidazol-4-yl)ethyl) = c1ncc(CCN*)[nH]1; Suc = O=C(CCC(=O)[*:2])[*:1]

Assays:
[1] = target: somatostatin receptors on AR42J cells (rat); experiment: apparent IC50, competitive binding on AR42J cells against 111In(DTPA-octreotide), RT 3 h
Sequence of somatostatin receptors on AR42J cells (rat) (P30680 whole entry): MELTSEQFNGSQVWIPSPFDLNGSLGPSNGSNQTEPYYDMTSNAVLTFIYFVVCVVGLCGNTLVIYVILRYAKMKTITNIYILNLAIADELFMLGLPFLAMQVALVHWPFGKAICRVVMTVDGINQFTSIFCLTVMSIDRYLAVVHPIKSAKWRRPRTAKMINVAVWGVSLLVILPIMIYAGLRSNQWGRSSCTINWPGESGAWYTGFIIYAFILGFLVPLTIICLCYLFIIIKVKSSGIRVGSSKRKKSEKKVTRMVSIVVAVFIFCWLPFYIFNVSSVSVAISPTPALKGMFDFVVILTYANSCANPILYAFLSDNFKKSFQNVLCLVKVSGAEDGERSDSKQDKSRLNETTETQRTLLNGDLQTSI

[2] = tested on: CEA-expressing LS174T tumors; details: mouse, in vivo
Protocol: One or two hours after the injection of the radiolabeled peptide, PET/CT images were acquired and the biodistribution of the radiolabeled peptide was determined. Uptake in the LS174T tumor was compared with that in an s.c. CEA-negative SK-RC 52 tumor.
Experiments were performed in male nude BALB/c mice (6-8 weeks old), weighing 20-25 grams. Mice received a subcutaneous injection with 0.2 mL of a suspension of 1×10^6 LS174T-cells, a CEA-expressing human colon carcinoma cell line (American Type Culture Collection, Rockville, Md., USA).
The percentage-injected dose per gram tissue (% ID/g) was calculated.
LS174T tumors were pretargeted by injecting 1.0, 2.5, 5.0 or 10.0 nmol TF2 (160, 400, 800 or 1600 μg).
In the right flank an s.c. LS174T tumor was induced, while at the same time in the same mice 1×10^6 SK-RC 52 cells were inoculated in the left flank to induce a CEA-negative tumor.
Mice were fasted during 10 hours prior to the injection and anaesthetized and kept warm at 37° C. until euthanasia, 1 h postinjection.

AR42J tumors = experiment: Biodistribution in mice with s.c. AR42J tumors; format: in vivo, nude BALB/c mice; details: 2 h p.i.
Protocol: Male nude BALB/c mice (6-8 weeks) were injected subcutaneously in the right flank with 0.2 mL AR42J cell suspension of 10^7 cells/mL. Approximately two weeks after tumor cell inoculation when tumors were 5-8 mm in diameter, 370 kBq ^18F- or ^68Ga-labeled IMP 466 was administered intravenously (n=5). Separate groups (n=5) were injected with a 1,000-fold molar excess of unlabeled IMP 466. One group of three mice was injected with unchelated [Al^18F]. All mice were killed by CO2/O2 asphyxiation 2 h post-injection (p.i.). Organs of interest were collected, weighed and counted in a gamma counter. The percentage of the injected dose per gram tissue (% ID/g) was calculated for each tissue. The animal experiments were approved by the local animal welfare committee and performed according to national regulations.

[3] = complexed with ^177Lu or ^205/206Bi; cited from earlier work
[4] = Stability of ^18F-labeled IMP 466 in human serum (RP-HPLC); format: in vitro ADME; details: 37° C., 4 h
Protocol: Ten μL of the ^18F-labeled IMP 466 was incubated in 500 μL of freshly collected human serum and incubated for 4 h at 37° C. Acetonitrile was added and the mixture was vortexed followed by centrifugation at 1000×g for 5 min to precipitate serum proteins. The supernatant was analyzed on RP-HPLC as described above.

RIIα dimers = RIIα dimers (Homo sapiens, UniProt P13861); details: read-out: affinity for RIIα dimers; cited from earlier work
Sequence of RIIα dimers (P13861 whole entry): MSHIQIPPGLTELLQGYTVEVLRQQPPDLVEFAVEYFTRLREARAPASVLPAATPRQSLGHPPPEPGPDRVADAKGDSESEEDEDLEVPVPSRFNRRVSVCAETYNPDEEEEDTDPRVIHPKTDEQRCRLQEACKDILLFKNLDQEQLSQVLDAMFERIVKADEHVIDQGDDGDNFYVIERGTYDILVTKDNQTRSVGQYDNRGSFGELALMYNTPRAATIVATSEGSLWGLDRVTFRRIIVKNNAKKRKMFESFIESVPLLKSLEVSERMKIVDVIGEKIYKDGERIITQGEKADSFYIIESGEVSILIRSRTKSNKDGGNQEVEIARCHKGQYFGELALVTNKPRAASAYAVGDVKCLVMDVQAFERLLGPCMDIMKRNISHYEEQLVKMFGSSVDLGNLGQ

115In(DTPA-octreotide) (peptide)
IC50 [1]: 6.3 nM

NC(=O)[C@@H](CCCCNC(=O)CNC(=O)CCC(=O)NCCc1c[nH]cn1)NC(=O)[C@@H](CCC(=O)O)NC(=O)[C@@H](CCCCNC(=O)CNC(=O)CCC(=O)NCCc1c[nH]cn1)NC(=O)[C@@H](Cc1ccc(O)cc1)NC(=O)CN1CCN(CC(=O)O)CCN(CC(=O)O)CCN(CC(=O)O)CC1 [IMP 288, DOTA-D-Tyr-D-Lys(HSG)-D-Glu-D-Lys(HSG)-NH2] ({DOTA}-[dY][dK]([Gly-Suc-NH(2-(imidazol-4-yl)ethyl)])[dE][dK]([Gly-Suc-NH(2-(imidazol-4-yl)ethyl)])-NH2)
time to maximum accretion in the tumor [2]: ≤ 1 h

Al19F(IMP 466): NOTA-D-Phe-Cys-Phe-D-Trp-Lys-Thr-Cys-Throl complexed with aluminium fluoride (19F) (peptide)
IC50 [1]: 3.6 nM

[18F][Al+2] [[Al^18F]]
bone uptake (AR42J tumors): 36.9±5.0 % ID/g | uptake in the bone [2]: 50.9±11.4 % ID/g

69Ga(IMP 466): NOTA-D-Phe-Cys-Phe-D-Trp-Lys-Thr-Cys-Throl complexed with 69Ga (peptide)
IC50 [1]: 13 nM

O=C(O)CN1CCN(CC(=O)O)CCN(CC(Cc2ccc([N+](=O)[O-])cc2)N(CC(=O)O)CC(=O)O)CC1 (stereo not drawn) [C-NETA]
stability in serum [3]: up to 14 days

C[C@@H](O)[C@@H]1NC(=O)[C@H](CCCCN)NC(=O)[C@@H](Cc2c[nH]c3ccccc23)NC(=O)[C@H](Cc2ccccc2)NC(=O)[C@@H](NC(=O)[C@@H](Cc2ccccc2)NC(=O)CN2CCN(CC(=O)O)CCN(CC(=O)O)CC2)CSSC[C@@H](C(=O)N[C@H](CO)[C@@H](C)O)NC1=O [Al^18F(IMP 466)]
release of ^18F after incubation in human serum [4]: did not show release of ^18F

17 residue synthetic AD, SEQ ID NO: 8 QIEYLAKQIVDNAIQQA [AKAP-IS]
Kd (RIIα dimers): 0.4 nM
